What was measured:
[1] = tested on: endotoxin (lipopolysaccharide, LPS Escherichia coli O111:B4) induced sepsis; experiment: Endotoxin sepsis model (LPS challenge), survival by Kaplan-Meier; format: in vivo, mice; conditions: 4 h before 2 mg/kg LPS, followed 4 days, P<0.01
Protocol: 1.1 Endotoxin Sepsis Model (LPS Escherichia coli O111:B4)
Two groups of animals (ten mice each) weighing ˜25 g were treated intraperitoneally with 1 or 2 mg/kg (single dose) of thymoquinone prepared in 10% DMSO; a control group (treated with only 10% DMSO) was also simultaneously run. Four hours after thymoquinone treatment, all groups were challenged with 2 mg/kg endotoxin (lipopolysaccharide, LPS) prepared in normal saline. Mortality of groups was followed for 4 days, and survival (primary endpoint) was calculated using Kaplan-Meier analysis.

E. coli (ATCC-25992) = experiment: Gram-negative bacteria sepsis model (E. coli challenge), survival by Kaplan-Meier; format: in vivo, mice; conditions: followed 2 days, P<0.01
Protocol: 1.2 Gram-Negative Bacteria Sepsis Model
Two groups of animals (twelve mice each) weighing ˜25 g were treated intraperitoneally with 0.75 or 1 mg/kg/day (for three days) of thymoquinone prepared in 10% DMSO; a control group (treated with only 10% DMSO) was also simultaneously run. Four hours after thymoquinone treatment, all groups were challenged with 2 μl/g E. coli (ATCC-25992, […] CFU/ml) prepared in normal saline. Mortality in treated groups was followed for 2 days, and survival (primary endpoint) was calculated using Kaplan-Meier analysis.

[2] = tested on: sepsis caused by E. coli bacteria; experiment: Biochemical blood analyses following E. coli administration; format: in vivo, mice; conditions: 6 h after E. coli administration
Protocol: (§1) In another set of experiments and after 6 h of E. coli administration, animals were lightly anesthetized with ether, and blood samples were collected, centrifuged and the resultant plasma were stored at −80° C. and used within 48 h. The levels of TNF-α, IL-1α, IL-2 and IL-10 were determined using an ELISA technique. Important biochemical parameters including blood serum creatinine, blood urea nitrogen, alanine transferase (ALT), albumin, and total lactate dehydrogenase (LDH) and creatinine kinase (CK) were also assessed in treated animals using commercially available kits according to the manufacturer's directions.

[3] = tested on: sepsis induced by E. coli bacteria; experiment: Immunological serum analyses (ELISA) following E. coli administration; format: in vivo, mice; conditions: 6 h after E. coli administration
Protocol: as §1

[4] = tested on: parental and multidrug resistant tumor cells; conditions: cited from earlier work
[5] = PROWESS trial, compared to placebo; cited from earlier work
[6] = cited from earlier work

Compound	protection efficacy against mortality in endotoxin induced sepsis ([1]; 1 mg/kg i.p. single dose)	protection efficacy against mortality in endotoxin induced sepsis ([1]; 2 mg/kg i.p. single dose)	protection efficacy against mortality in sepsis induced by Gram-negative bacteria (E. coli (ATCC-25992); 0.75 mg/kg/day i.p. for three days)	protection efficacy against mortality in sepsis induced by Gram-negative bacteria (E. coli (ATCC-25992); 1 mg/kg/day i.p. for three days)	blood urea nitrogen (kidney dysfunction biomarker) ([2]; FIG. 4A)	serum creatinine (kidney dysfunction biomarker) ([2]; FIG. 4B)	alanine transferase (liver dysfunction biomarker) ([2]; FIG. 4C)	plasma albumin level ([2]; FIG. 4D)	total creatinine kinase (marker of tissue injury) ([2]; FIG. 4E)	total lactate dehydrogenase (marker of tissue injury) ([2]; FIG. 4F)	TNF-α level ([3]; FIG. 5A)	IL-1α level ([3]; FIG. 5B)	IL-2 level ([3]; FIG. 5C)	IL-10 level ([3]; FIG. 5D)	cytotoxicity to parental and multidrug resistant tumor cells [4]	absolute decrease in mortality rate [5]	relative risk reduction (mortality) [5]	efficacy in sepsis patients ([6]; patients with a low risk of death or pediatric patients)	28-day mortality rate ([6]; subgroup with recent surgery and single-organ dysfunction, placebo 14.1%, P=0.03)
CC1=CC(=O)C(C(C)C)=CC1=O [thymoquinone, 2-isopropyl-5-methyl-1,4-benzoquinone]	about 80%	~90%	about 90%	about 90%	Important reductions	Important reductions	Important reductions	improvement in albumin level	Important reductions	Important reductions	Significant reductions	Significant reductions	Significant reductions	Significant reductions	cytotoxic				
drotrecogin alfa																6%	19%	not effective	20.7%

From US8895625B2, “Protective effect of thymoquinone in sepsis” (King Saud University, priority 2009, dated 2014)
